Laboratory results published in patent US8436020B2, “Processes for the preparation of piperidinic derivatives and pharmaceutic compositions containing the same” (priority 2004, dated 2013).
Values joined by “and” are separate entries in the source; they are usually repeats but may differ in a detail not shown here. Identical values can stand only once. “Also recorded” adds a separate entry of the source. Like-named read-outs stand apart in the source and are kept apart here.

Key:
[1] = assay type: in vivo, mice
[2] = system: amnesia induced by scopolamine; experiment: Amnesia induced by scopolamine in the inhibitory avoidance assay; assay type: in vivo, Swiss mice; conditions: mice
From the text: A total of 120 adult male (25-30 g) Swiss mice were used. The animals were submitted to the inhibitory avoidance assay, which consists of a box with a base made of a grid connected to an electrostimulator (0.6 mA/3 s), and containing a wood platform (3 cm^3). Mice were put over this platform; being computed the latency (in seconds) until the animals put the four paws over the grid. In the first day of the test (“training”), animals would receive an adverse electrical stimulus (0.6 mA/3 s) whenever they stepped down to the grid (step down latency—SDL). At this stage, animals that would stay more than 15 seconds over the platform were discarded. Twenty-four hours later, the animals were re-introduced over the platform and the SDL computed (“retention”).

[3] = system: amnesia induced by scopolamine; experiment: Amnesia induced by scopolamine in the Morris water maze; assay type: in vivo, Wistar rats; conditions: rats, scopolamine 1 mg/kg, 4 days test
Procedure: A total of 39 Wistar rats (females—±200 g) were used.
After 30 minutes of intraperitoneal second administration (saline or scopolamine), the animals were challenged to localize an underwater platform in a round recipient containing opaque water (water maze) and the escape latency (in seconds) was computed. […] Tests were conducted twice a day, during 4 consecutive days.
When treated with scopolamine 30 minutes before the challenge, the animals could not learn the task and the escape latency approaches maximum values (150 s) in the fourth day of the test.

[4] = biological target: cholinesterase in homogenized rat brain (Rattus norvegicus, UniProt P37136); conditions: for IC50: rat brain homogenate
Chain of cholinesterase in homogenized rat brain (P37136 32-614): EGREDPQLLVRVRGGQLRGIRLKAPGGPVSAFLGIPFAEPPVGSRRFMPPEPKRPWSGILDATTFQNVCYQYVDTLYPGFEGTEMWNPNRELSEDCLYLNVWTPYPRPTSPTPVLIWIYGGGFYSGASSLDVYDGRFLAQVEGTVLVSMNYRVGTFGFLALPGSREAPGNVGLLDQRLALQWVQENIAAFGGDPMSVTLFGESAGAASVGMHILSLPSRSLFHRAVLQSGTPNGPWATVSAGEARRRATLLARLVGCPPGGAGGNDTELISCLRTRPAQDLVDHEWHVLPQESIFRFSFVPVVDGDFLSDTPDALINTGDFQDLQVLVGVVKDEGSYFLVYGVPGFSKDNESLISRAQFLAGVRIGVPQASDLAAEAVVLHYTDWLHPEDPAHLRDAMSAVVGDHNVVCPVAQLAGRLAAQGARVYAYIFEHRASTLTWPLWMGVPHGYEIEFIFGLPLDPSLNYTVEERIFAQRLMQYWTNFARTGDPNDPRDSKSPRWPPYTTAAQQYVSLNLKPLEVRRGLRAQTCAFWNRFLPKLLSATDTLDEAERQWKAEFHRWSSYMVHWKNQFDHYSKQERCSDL
Procedure: In all experiments, cholinesterase-independent substrate hydrolysis (non specific) was determined by the inclusion of an experimental group treated with THA 20 μM. Appropriate tissues and reagents (em branco) were also included. Reaction velocities were determined in 3 or 4 repetitions by condition; mean values were calculated and expressed as percentages of relative activity in respect to control (solvent), after subtraction of the non-specific hydrolysis rate. The substances were tested in at least five different concentrations. From the resulting inhibition curve, values in the ranges […] 20%-80% were considered, with concentration limited to 500 μM. The IC50, based in a single-site model, was determined via linear regression.

[5] = Water solubility of the chlorhydrate derivatives
[6] = Cholinergic side effects (diarrhea) 30 minutes after administration, rats; assay type: in vivo
From the text: Results from this assay can be seen in FIGS. 8-9.

[7] = biological target: BuChE (Homo sapiens, UniProt P06276); conditions: arisugacines and cyclopenine: no BuChE inhibition at this multiple; cyclophostin: BuChE inhibited at this multiple; cited from earlier work
Chain of BuChE (P06276 29-602): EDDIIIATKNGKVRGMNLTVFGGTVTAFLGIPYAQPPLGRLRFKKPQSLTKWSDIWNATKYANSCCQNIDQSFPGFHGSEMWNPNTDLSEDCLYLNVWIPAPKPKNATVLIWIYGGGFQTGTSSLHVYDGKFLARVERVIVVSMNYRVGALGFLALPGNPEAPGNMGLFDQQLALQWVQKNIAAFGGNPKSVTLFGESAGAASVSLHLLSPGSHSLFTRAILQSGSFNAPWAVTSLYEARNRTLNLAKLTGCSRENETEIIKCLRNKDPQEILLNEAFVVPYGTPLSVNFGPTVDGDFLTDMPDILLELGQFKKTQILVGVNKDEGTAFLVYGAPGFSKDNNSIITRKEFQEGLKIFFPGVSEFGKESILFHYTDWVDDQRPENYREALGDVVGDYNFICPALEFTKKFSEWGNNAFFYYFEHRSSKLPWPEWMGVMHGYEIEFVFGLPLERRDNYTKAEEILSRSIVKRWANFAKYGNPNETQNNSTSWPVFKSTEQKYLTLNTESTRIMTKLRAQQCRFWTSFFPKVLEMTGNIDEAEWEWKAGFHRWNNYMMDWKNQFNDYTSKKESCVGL

[8] = biological target: T1, AChE (Homo sapiens, UniProt P22303); conditions: read-out: IC50, AChE; cited from earlier work
T1 sequence (P22303 32-614): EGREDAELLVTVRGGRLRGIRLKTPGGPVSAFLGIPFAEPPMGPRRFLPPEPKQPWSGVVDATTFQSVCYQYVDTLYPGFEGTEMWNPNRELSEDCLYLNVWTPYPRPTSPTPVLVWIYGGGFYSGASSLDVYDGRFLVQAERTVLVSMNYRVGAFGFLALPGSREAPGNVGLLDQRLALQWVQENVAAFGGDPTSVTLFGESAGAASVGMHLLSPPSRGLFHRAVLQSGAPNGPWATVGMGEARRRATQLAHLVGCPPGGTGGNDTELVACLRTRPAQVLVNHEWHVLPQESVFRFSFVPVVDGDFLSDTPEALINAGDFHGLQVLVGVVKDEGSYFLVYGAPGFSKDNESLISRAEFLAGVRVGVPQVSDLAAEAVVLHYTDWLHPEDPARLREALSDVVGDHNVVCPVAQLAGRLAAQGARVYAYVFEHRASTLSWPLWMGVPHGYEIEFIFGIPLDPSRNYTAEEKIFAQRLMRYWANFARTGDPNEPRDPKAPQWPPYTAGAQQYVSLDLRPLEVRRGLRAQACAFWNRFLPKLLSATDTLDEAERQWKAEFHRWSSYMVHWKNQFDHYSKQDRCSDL

[9] = biological target: T1, AChE; conditions: cited from earlier work; for IC50: read-out: IC50 AChE, tacrine as positive control
[10] = biological target: butyrylcholinesterase (BuChE) (Homo sapiens, UniProt P06276); conditions: read-out: IC50 BuChE; cited from earlier work
Chain of butyrylcholinesterase (BuChE) (P06276 29-602): as the sequence (P06276 29-602) above

[11] = biological target: T1, AChE; conditions: cited from earlier work
[12] = biological target: T1, AChE; conditions: read-out: IC50, AChE activity; cited from earlier work
[13] = biological target: T1, AChE; conditions: read-out: IC50, anticholinesterasic activity; cited from earlier work
[14] = read-out: Experimental IC50, cerebral cholinesterase inhibition, single independent experiment (one animal), acetylthiocholine 1 mM
[15] = read-out: Mean IC50, cerebral cholinesterase inhibition, mean of N independent experiments

For `CC(=O)CCCCCCCCCCCC[C@H]1CC[C@@H](OC(C)=O)[C@@H](C)N1.Cl` [LASSBio-767, 2-(R)-methyl-3-(R)—O-acetyl-6-(S)-(tetradecyl-13′-one)-piperidine chlorhydrate], the “Cholinergic side effects and motor activity” value ([1]; 10 mg/kg) was “no cholinergic side effects and no interference in the motor activity”, the “Reversion of amnesia induced by scopolamine, step down latency” value (“Reversion … step down latency” below) ([2]; 1 and 10 mg/kg, scopolamine 1 mg/kg) was “do not differ from the ones treated only with scopolamine; also recorded: did not present any effect on the amnesia induced by scopolamine” and the “Reversion of amnesia induced by scopolamine, escape latency in water maze” value (shortened to “Reversion of amnesia induced … in water maze”) ([3]; 1 mg/kg) was “superior effect in relation to tacrine in the reversion of the induced amnesia by scopolamine”. The “Reversion of amnesia induced … in water maze” value ([3]; 10 mg/kg) was “also observed”, the “AChE inhibitory capacity ex vivo” value [4] was “remarkable anticholinesterasic activity” and the IC50 [4, 14] was 4.82 µM and 4.49 µM. The IC50 [4, 15] was 4.65 µM, the Solubility in water [5] was “water-soluble” and the Occurrence of diarrhea [6] was “Only animals treated with tacrine presented diarrhea”.

With `CC(=O)CCCCCCCCCCCC[C@H]1CC[C@@H](O)[C@@H](C)N1.Cl` [LASSBio-768, Espectaline Chlorhydrate] the “AChE inhibitory capacity ex vivo” value [4] was “remarkable anticholinesterasic activity”, the IC50 [4, 14] was 195 µM and 278 µM and the IC50 [4, 15] was 236 µM. For the same compound, the Solubility in water [5] was “water-soluble”.

With `CC(=O)O[C@@H]1CC[C@H](CCCCCCCCCCCCC(C)O)N[C@@H]1C` (stereo partly drawn) [LASSBio-783, (2R,3R,6S)-3-acetoxy-6-(13-hydroxy-tetradecyl-2-methyl)-piperidine chlorhydrate] the IC50 [4, 14] was 333 µM and 702 µM and 242 µM and the IC50 [4, 15] was 426 µM.

With `CC(=O)CCCCCCCCCCCC[C@H]1CC[C@@H](OC(=O)OC(C)(C)C)[C@@H](C)N1.Cl` [LASSBio-822, 2-(R)-methyl-3-(R)—O-ter-butoxycarbonyl-6-(S)-(tetradecyl-13′-one)-piperidine chlorhydrate] the “Reversion … step down latency” value ([2]; 1 and 3 mg/kg, scopolamine 1 mg/kg) was “significant partial reversion of the amnesia induced by scopolamine; also recorded: capable of a significant reversion of the amnesia induced by scopolamine”, the “Reversion of amnesia induced … in water maze” value ([3]; 1 mg/kg) was “not capable of antagonize the amnesia induced by scopolamine” and the “AChE inhibitory capacity ex vivo” value [4] was “remarkable anticholinesterasic activity”. The IC50 [4, 14] was 9.15 µM and 16.2 µM and 19.9 µM, the IC50 [4, 15] was 15.1 µM and the Solubility in water [5] was “water-soluble”.

For `Nc1c2c(nc3ccccc13)CCCC2` [Tacrine, tacrine, reference compound], the “Mice with diarrhea and urination” value ([1]; 10 mg/kg I.P., mice) was 70%, the “Other side effects observed” value ([1]; 10 mg/kg I.P., mice) was “hypothermia and diminished motor activity” and the “Cholinergic side effect parameters” value ([1]; concentrations superior to 30 mg/kg, mice) was “all checked parameters are altered”. For the same compound, the “Reversion … step down latency” value ([2]; 5.6 mg/kg) was “complete reversion of the amnesia induced by scopolamine; also recorded: totally reversed the effect of scopolamine”, the “Reversion of amnesia induced … in water maze” value ([3]; 1 mg/kg) was “antagonize the induced amnesia by scopolamine, a significant effect in the fourth day of the study” and the Animals with diarrhea ([6]; 1 mg/kg) was 100%.

For `CN1C(=O)c2ccccc2NC(=O)[C@]12O[C@@H]2c1ccccc1` [cyclopenine], the “Concentration tested on BuChE as a multiple of the AChE IC50 (selectivity)” value [7] is given as > 2,000 times and the IC50 [8] is given as 2.04 µM.

In the case of `CO[P@]1(=O)OC[C@H]2COC(=O)C2=C(C)O1` [cyclophostin], the “Concentration tested on BuChE as a multiple of the AChE IC50 (selectivity)” value [7] is listed as 35 times and the IC50 [8] is listed as 0.0013 µM.

For `CC[C@H](C)[C@H]1NC(=O)c2c1n(C)c1ccccc1c2=O` [quinolactacin A1], the IC50 [9] is given as 280 µM.

For `CC[C@H](C)[C@@H]1NC(=O)c2c1n(C)c1ccccc1c2=O` [quinolactacin A2], the IC50 [10] is listed as 650 µM, the “Inhibitory AChE activity relative to diastereoisomer A1” value [9] is listed as 14 times and the IC50 [9] is listed as 19.8 µM.

For `COc1cc(-c2cc3c(c(=O)o2)C[C@]2(O)[C@@]4(C)C(=O)C=CC(C)(C)[C@]4(O)CC[C@@]2(C)O3)cc(OC)c1OC` [territrem B], the IC50 [8] is given as 0.0076 µM and the “Potency relative to neostigmine in AChE inhibition” value [11] is given as “approximately 20 times”.

In the case of `COc1cc(-c2cc3c(c(=O)o2)C[C@]2(O)[C@@]4(C)C(=O)C=CC(C)(C)[C@]4(O)CC[C@@]2(C)O3)cc(OC)c1O` [territrem C], the IC50 [8] is listed as 0.0068 µM.

For `C/C(=C\CNc1ncnc2nc[nH]c12)CO` [zeatine], the IC50 [12] is given as 109 µM.

For `C=C1CC[C@H]2C(C)(C)[C@@H](O)CC[C@]2(C)[C@H]1CC[C@H]1C(=C)CC[C@H]2C(C)(C)[C@@H](O)CC[C@]12C` [α-onocerine, α-onocerin], the IC50 [13] is given as 5.2 µM.
